In patent EP1561465A2, “Methods of use of fluoroquinolone compounds against bacteria” (LG Life Sciences, Ltd., priority 1999, dated 2001):
In brackets after ≈: the same amount, converted by molar mass. Like-named read-outs stand apart in the source and are kept apart here.

Key:
Test in all cases: MIC by NCCLS reference broth microdilution, 450 respiratory tract pathogens
Assay type in all cases: cell-based
[1] = tested on: Haemophilus influenzae
[2] = tested on: Moraxella catarrhalis
[3] = tested on: Klebsiella pneumoniae; conditions: for MIC50 / MIC90: Klebsiella pneumoniae
[4] = tested on: Staphylococcus aureus
[5] = tested on: Streptococcus pyogenes; conditions: Streptococcus pyogenes
[6] = tested on: Streptococcus pneumoniae; conditions: Streptococcus pneumoniae
[7] = Haemophilus influenzae, Haemophilus influenzae (n = 100)
[8] = Haemophilus influenzae, Haemophilus influenzae (n = 100), read-out: MIC90
[9] = Haemophilus influenzae, β-lactamase negative (n = 80)
[10] = Haemophilus influenzae, β-lactamase negative (n = 80), read-out: MIC90
[11] = Haemophilus influenzae, β-lactamase positive (n = 20)
[12] = Haemophilus influenzae, β-lactamase positive (n = 20), read-out: MIC90
[13] = extended spectrum β-lactamase negative (n = 30)
[14] = extended spectrum β-lactamase positive (n = 20)
[15] = β-lactamase positive and erythromycin resistant (n = 10)
[16] = Streptococcus pyogenes (n = 100)
[17] = erythromycin resistant C phenotype [MLSB] (n = 20)
[18] = erythromycin resistant I phenotype [MLSB] (n = 20)
[19] = erythromycin resistant M phenotype (n = 20)
[20] = Streptococcus pneumoniae (n = 100)
[21] = erythromycin resistant M phenotype (n = 16)
[22] = erythromycin resistant MLSB phenotype (n = 16)
[23] = penicillin intermediate (n = 16)
[24] = penicillin susceptible (n = 20)

COc1c(N2C[C@@H]3CCCN[C@@H]3C2)c(F)cc2c(=O)c(C(=O)O)cn(C3CC3)c12 [Moxifloxacin, moxifloxacin]
MIC [1, 7]: 0.0075 to 0.12 µg/mL (≈ 0.0187 to 0.299 µM)
MIC50 [1, 7]: 0.03 µg/mL (≈ 0.0747 µM)
MIC90 [1, 8]: 0.06 µg/mL (≈ 0.149 µM)
MIC [1, 9]: 0.0075 to 0.06 µg/mL (≈ 0.0187 to 0.149 µM)
MIC50 [1, 9]: 0.03 µg/mL (≈ 0.0747 µM)
MIC90 [1, 10]: 0.06 µg/mL (≈ 0.149 µM)
MIC [1, 11]: 0.0075 to 0.06 µg/mL (≈ 0.0187 to 0.149 µM)
MIC50 [1, 11]: 0.015 µg/mL (≈ 0.0374 µM)
MIC90 [1, 12]: 0.015 µg/mL (≈ 0.0374 µM)
MIC ([2]; Moraxella catarrhalis (n = 50)): 0.00375 to 0.12 µg/mL (≈ 0.00934 to 0.299 µM)
MIC50 ([2]; Moraxella catarrhalis (n = 50)): 0.06 µg/mL (≈ 0.149 µM)
MIC90 ([2]; Moraxella catarrhalis (n = 50)): 0.06 µg/mL (≈ 0.149 µM)
MIC ([2]; β-lactamase negative (n = 13)): 0.00375 to 0.12 µg/mL (≈ 0.00934 to 0.299 µM)
MIC50 ([2]; β-lactamase negative (n = 13)): 0.015 µg/mL (≈ 0.0374 µM)
MIC90 ([2]; β-lactamase negative (n = 13)): 0.06 µg/mL (≈ 0.149 µM)
MIC ([2]; β-lactamase positive (n = 37)): 0.00375 to 0.12 µg/mL (≈ 0.00934 to 0.299 µM)
MIC50 ([2]; β-lactamase positive (n = 37)): 0.03 µg/mL (≈ 0.0747 µM)
MIC90 ([2]; β-lactamase positive (n = 37)): 0.06 µg/mL (≈ 0.149 µM)
MIC Range ([3]; Klebsiella pneumoniae (n = 50)): 0.015 to 1 µg/mL
MIC50 ([3]; Klebsiella pneumoniae (n = 50)): 0.06 µg/mL (≈ 0.149 µM)
MIC90 ([3]; Klebsiella pneumoniae (n = 50)): 0.5 µg/mL (≈ 1.25 µM)
MIC50 [3, 13]: 0.06 µg/mL (≈ 0.149 µM)
MIC90 [3, 13]: 0.25 µg/mL (≈ 0.623 µM)
MIC50 [3, 14]: 0.5 µg/mL (≈ 1.25 µM)
MIC90 [3, 14]: 1 µg/mL (≈ 2.49 µM)
MIC Range [3, 13]: 0.015 to 0.5 µg/mL
MIC Range [3, 14]: 0.06 to 1 µg/mL
MIC ([4]; Staphylococcus aureus (n = 50)): 0.015 to 0.5 µg/mL (≈ 0.0374 to 1.25 µM)
MIC50 ([4]; Staphylococcus aureus (n = 50)): 0.25 µg/mL (≈ 0.623 µM)
MIC90 ([4]; Staphylococcus aureus (n = 50)): 0.5 µg/mL (≈ 1.25 µM)
MIC ([4]; β-lactamase negative (n = 20)): 0.06 to 0.5 µg/mL (≈ 0.149 to 1.25 µM)
MIC50 ([4]; β-lactamase negative (n = 20)): 0.25 µg/mL (≈ 0.623 µM)
MIC90 ([4]; β-lactamase negative (n = 20)): 0.5 µg/mL (≈ 1.25 µM)
MIC ([4]; β-lactamase positive (n = 20)): 0.12 to 0.5 µg/mL (≈ 0.299 to 1.25 µM)
MIC50 ([4]; β-lactamase positive (n = 20)): 0.25 µg/mL (≈ 0.623 µM)
MIC90 ([4]; β-lactamase positive (n = 20)): 0.5 µg/mL (≈ 1.25 µM)
MIC [4, 15]: 0.12 to 0.5 µg/mL (≈ 0.299 to 1.25 µM)
MIC50 [4, 15]: 0.25 µg/mL (≈ 0.623 µM)
MIC90 [4, 15]: 0.5 µg/mL (≈ 1.25 µM)

NC1CCN(c2c(F)cc3c(=O)c(C(=O)O)cn(C4CC4)c3c2Cl)C1 (stereo not shown) [Clinafloxacin, clinafloxacin]
MIC90 ([1]; Haemophilus influenzae (n = 100)): ≤0.00075 µg/mL
MIC [1, 7]: 0.0075 to 0.06 µg/mL (≈ 0.0205 to 0.164 µM)
MIC50 [1, 7]: ≤ 0.00075 µg/mL
MIC90 [1, 8]: ≤ 0.00075 µg/mL
MIC [1, 9]: 0.0075 to 0.06 µg/mL (≈ 0.0205 to 0.164 µM)
MIC50 [1, 9]: ≤ 0.0075 µg/mL
MIC90 [1, 10]: ≤ 0.0075 µg/mL
MIC [1, 11]: 0.0075 to 0.25 µg/mL (≈ 0.0205 to 0.683 µM)
MIC50 [1, 11]: ≤ 0.0075 µg/mL
MIC90 [1, 12]: ≤ 0.0075 µg/mL
MIC ([2]; Moraxella catarrhalis (n = 50)): 0.00375 to 0.015 µg/mL (≈ 0.0103 to 0.041 µM)
MIC50 ([2]; Moraxella catarrhalis (n = 50)): ≤ 0.00375 µg/mL
MIC90 ([2]; Moraxella catarrhalis (n = 50)): 0.015 µg/mL (≈ 0.041 µM)
MIC ([2]; β-lactamase negative (n = 13)): 0.00375 to 0.015 µg/mL (≈ 0.0103 to 0.041 µM)
MIC50 ([2]; β-lactamase negative (n = 13)): ≤ 0.00375 µg/mL
MIC90 ([2]; β-lactamase negative (n = 13)): 0.015 µg/mL (≈ 0.041 µM)
MIC ([2]; β-lactamase positive (n = 37)): 0.00375 to 0.015 µg/mL (≈ 0.0103 to 0.041 µM)
MIC50 ([2]; β-lactamase positive (n = 37)): ≤ 0.00375 µg/mL
MIC90 ([2]; β-lactamase positive (n = 37)): 0.015 µg/mL (≈ 0.041 µM)
MIC Range ([3]; Klebsiella pneumoniae (n = 50)): ≤0.0075 to 1 µg/mL
MIC50 ([3]; Klebsiella pneumoniae (n = 50)): 0.015 µg/mL (≈ 0.041 µM)
MIC90 ([3]; Klebsiella pneumoniae (n = 50)): 1 µg/mL (≈ 2.73 µM)
MIC50 [3, 13]: ≤ 0.0075 µg/mL
MIC90 [3, 13]: 0.015 µg/mL (≈ 0.041 µM)
MIC50 [3, 14]: ≤ 0.0075 µg/mL
MIC90 [3, 14]: 1 µg/mL (≈ 2.73 µM)
MIC Range [3, 13]: ≤0.0075 to 0.12 µg/mL
MIC Range [3, 14]: ≤0.0075 to 1 µg/mL
MIC ([4]; Staphylococcus aureus (n = 50)): 0.06 to 0.25 µg/mL (≈ 0.164 to 0.683 µM)
MIC50 ([4]; Staphylococcus aureus (n = 50)): 0.12 µg/mL (≈ 0.328 µM)
MIC90 ([4]; Staphylococcus aureus (n = 50)): 0.25 µg/mL (≈ 0.683 µM)
MIC ([4]; β-lactamase negative (n = 20)): 0.06 to 0.25 µg/mL (≈ 0.164 to 0.683 µM)
MIC50 ([4]; β-lactamase negative (n = 20)): 0.12 µg/mL (≈ 0.328 µM)
MIC90 ([4]; β-lactamase negative (n = 20)): 0.25 µg/mL (≈ 0.683 µM)
MIC ([4]; β-lactamase positive (n = 20)): 0.06 to 0.25 µg/mL (≈ 0.164 to 0.683 µM)
MIC50 ([4]; β-lactamase positive (n = 20)): 0.12 µg/mL (≈ 0.328 µM)
MIC90 ([4]; β-lactamase positive (n = 20)): 0.25 µg/mL (≈ 0.683 µM)
MIC [4, 15]: 0.06 to 0.25 µg/mL (≈ 0.164 to 0.683 µM)
MIC50 [4, 15]: 0.12 µg/mL (≈ 0.328 µM)
MIC90 [4, 15]: 0.25 µg/mL (≈ 0.683 µM)
MIC [5, 16]: 0.015 to 0.12 µg/mL (≈ 0.041 to 0.328 µM)
MIC50 [5, 16]: 0.06 µg/mL (≈ 0.164 µM)
MIC90 [5, 16]: 0.06 µg/mL (≈ 0.164 µM)
MIC [5, 17]: 0.03 to 0.12 µg/mL (≈ 0.082 to 0.328 µM)
MIC50 [5, 17]: 0.06 µg/mL (≈ 0.164 µM)
MIC90 [5, 17]: 0.12 µg/mL (≈ 0.328 µM)
MIC [5, 18]: 0.03 to 0.06 µg/mL (≈ 0.082 to 0.164 µM)
MIC50 [5, 18]: 0.06 µg/mL (≈ 0.164 µM)
MIC90 [5, 18]: 0.06 µg/mL (≈ 0.164 µM)
MIC [5, 19]: 0.015 to 0.06 µg/mL (≈ 0.041 to 0.164 µM)
MIC50 [5, 19]: 0.03 µg/mL (≈ 0.082 µM)
MIC90 [5, 19]: 0.06 µg/mL (≈ 0.164 µM)
MIC ([5]; fully susceptible (n = 20)): 0.03 to 0.12 µg/mL (≈ 0.082 to 0.328 µM)
MIC50 ([5]; fully susceptible (n = 20)): 0.03 µg/mL (≈ 0.082 µM)
MIC90 ([5]; fully susceptible (n = 20)): 0.06 µg/mL (≈ 0.164 µM)
MIC ([5]; multi-drug resistant (n = 20)): 0.03 to 0.06 µg/mL (≈ 0.082 to 0.164 µM)
MIC50 ([5]; multi-drug resistant (n = 20)): 0.03 µg/mL (≈ 0.082 µM)
MIC90 ([5]; multi-drug resistant (n = 20)): 0.06 µg/mL (≈ 0.164 µM)
MIC [6, 20]: 0.03 to 0.25 µg/mL (≈ 0.082 to 0.683 µM)
MIC50 [6, 20]: 0.06 µg/mL (≈ 0.164 µM)
MIC90 [6, 20]: 0.12 µg/mL (≈ 0.328 µM)
MIC [6, 21]: 0.03 to 0.12 µg/mL (≈ 0.082 to 0.328 µM)
MIC50 [6, 21]: 0.06 µg/mL (≈ 0.164 µM)
MIC90 [6, 21]: 0.12 µg/mL (≈ 0.328 µM)
MIC [6, 22]: 0.03 to 0.12 µg/mL (≈ 0.082 to 0.328 µM)
MIC50 [6, 22]: 0.06 µg/mL (≈ 0.164 µM)
MIC90 [6, 22]: 0.12 µg/mL (≈ 0.328 µM)
MIC ([6]; multi-drug resistant (n = 16)): 0.06 to 0.12 µg/mL (≈ 0.164 to 0.328 µM)
MIC50 ([6]; multi-drug resistant (n = 16)): 0.12 µg/mL (≈ 0.328 µM)
MIC90 ([6]; multi-drug resistant (n = 16)): 0.12 µg/mL (≈ 0.328 µM)
MIC [6, 23]: 0.06 to 0.12 µg/mL (≈ 0.164 to 0.328 µM)
MIC50 [6, 23]: 0.12 µg/mL (≈ 0.328 µM)
MIC90 [6, 23]: 0.12 µg/mL (≈ 0.328 µM)
MIC ([6]; penicillin resistant (n = 18)): 0.06 to 0.25 µg/mL (≈ 0.164 to 0.683 µM)
MIC50 ([6]; penicillin resistant (n = 18)): 0.12 µg/mL (≈ 0.328 µM)
MIC90 ([6]; penicillin resistant (n = 18)): 0.25 µg/mL (≈ 0.683 µM)
MIC [6, 24]: 0.015 to 0.12 µg/mL (≈ 0.041 to 0.328 µM)
MIC50 [6, 24]: 0.06 µg/mL (≈ 0.164 µM)
MIC90 [6, 24]: 0.12 µg/mL (≈ 0.328 µM)
